Series [1] concerns the target T1, fibrin gels (40 mg/mL fibrinogen, 33 U/mL thrombin) (Homo sapiens, UniProt P02671+P02675+P02679).
T1 construct: purchased Ethicon (Evicel)
T1 sequence (P02671 20-644 isoform P02671-2 limits assumed): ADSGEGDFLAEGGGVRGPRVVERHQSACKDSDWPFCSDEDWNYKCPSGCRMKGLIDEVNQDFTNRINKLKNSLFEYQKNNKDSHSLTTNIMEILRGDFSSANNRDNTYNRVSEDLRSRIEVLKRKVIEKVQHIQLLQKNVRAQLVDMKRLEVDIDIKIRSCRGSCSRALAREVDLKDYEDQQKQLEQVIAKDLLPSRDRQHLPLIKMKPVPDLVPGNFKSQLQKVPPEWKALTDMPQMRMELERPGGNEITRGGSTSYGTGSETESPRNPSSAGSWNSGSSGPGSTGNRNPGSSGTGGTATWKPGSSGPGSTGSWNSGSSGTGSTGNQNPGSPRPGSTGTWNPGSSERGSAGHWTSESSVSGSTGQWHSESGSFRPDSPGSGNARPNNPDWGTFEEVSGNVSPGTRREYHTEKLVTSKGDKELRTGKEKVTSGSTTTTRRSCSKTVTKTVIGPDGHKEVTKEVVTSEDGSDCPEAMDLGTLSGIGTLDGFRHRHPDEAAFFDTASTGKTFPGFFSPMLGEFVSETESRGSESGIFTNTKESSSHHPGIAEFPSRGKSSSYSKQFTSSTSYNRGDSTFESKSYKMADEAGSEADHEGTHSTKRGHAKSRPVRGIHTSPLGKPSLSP
T1 sequence (P02675 45-491 limits assumed): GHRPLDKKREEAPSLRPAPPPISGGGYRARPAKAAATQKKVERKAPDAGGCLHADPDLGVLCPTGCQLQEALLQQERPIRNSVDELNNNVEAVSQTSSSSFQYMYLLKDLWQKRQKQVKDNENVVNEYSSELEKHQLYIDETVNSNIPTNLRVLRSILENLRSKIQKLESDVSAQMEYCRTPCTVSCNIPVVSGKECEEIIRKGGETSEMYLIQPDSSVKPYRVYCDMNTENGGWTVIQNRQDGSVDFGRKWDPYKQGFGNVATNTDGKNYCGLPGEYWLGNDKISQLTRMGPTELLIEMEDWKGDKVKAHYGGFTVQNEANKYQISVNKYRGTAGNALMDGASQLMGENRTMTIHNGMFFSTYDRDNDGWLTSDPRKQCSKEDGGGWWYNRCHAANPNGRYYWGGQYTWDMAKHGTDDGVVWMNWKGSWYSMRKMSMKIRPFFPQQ
T1 sequence (P02679 27-437 isoform P02679-2 limits assumed): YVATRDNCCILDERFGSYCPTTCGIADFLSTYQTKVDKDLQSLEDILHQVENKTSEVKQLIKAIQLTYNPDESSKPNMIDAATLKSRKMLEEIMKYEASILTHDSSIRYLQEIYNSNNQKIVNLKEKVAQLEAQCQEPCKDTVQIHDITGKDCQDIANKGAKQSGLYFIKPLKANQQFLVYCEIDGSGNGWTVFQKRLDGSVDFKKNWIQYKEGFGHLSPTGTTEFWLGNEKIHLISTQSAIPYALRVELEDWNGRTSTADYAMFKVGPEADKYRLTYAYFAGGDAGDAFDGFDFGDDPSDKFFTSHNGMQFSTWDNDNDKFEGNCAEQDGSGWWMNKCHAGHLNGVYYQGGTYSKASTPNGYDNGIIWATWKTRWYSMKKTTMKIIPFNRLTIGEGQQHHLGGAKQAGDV
Nature of the series: Rheometry gelation time, polymerization time and shear modulus, higher fibrinogen concentration fibrin gels. It counts as biochemical. The following applies: 0.12% w/v dye, n=3; for final shear modulus (g′): strain sweep after 2 hour time sweep. As to the method:
The viscoelastic mechanical properties of fibrin gels were characterized using oscillatory shear rheology on a Discovery Hybrid Rheometer 2 (TA Instruments; New Castle, DE) with a 20 mm cone-and-plate geometry at a 1° angle and a 20 mm stage. Inertia, friction, and rotational mapping calibrations were performed prior to each experiment. A Peltier temperature-controlled stage maintained 37° C. and a solvent trap was used to control evaporation during experiments lasting longer than 20 minutes. Gels were prepared by mixing specified concentrations of fibrinogen, dye, and thrombin on the stage. Immediately after combining, the geometry head was lowered to 500 μm (˜1-3 seconds) before beginning the first experiment. Gelation kinetics were monitored in time sweeps at 1% strain and 10 rad/s angular frequency. Strain sweeps were measured from 0.01-1000% strain at 1 Hz frequency. A frequency sweeps measured from 0.01-3 Hz at 1% strain was used to confirmed fibrin independence of frequency.
To determine the final polymerization time and resultant shear modulus, a final concentration of 40 mg/mL fibrinogen, 33 U/mL thrombin, and 0.12% w/v dye was used to simulate fibrin scaffold parameters described elsewhere (see, e.g., Gandhi et al., 2018 Acta Biomater., 67:134-46). A time sweep was performed for 2 hours, and the strain sweep was measured following the time sweep to confirm final polymerization had occurred. The shear modulus was determined by averaging values within the linear region of the strain sweep (between 0.01% and 0.5% strain). A 95% confidence interval was defined for the final shear modulus and the lower range value was used as the threshold to determine the final polymerization time.
With confirming that both TB and EB, but not PEG, cause a substantial increase in gelation time, polymerization time was measured. The polymerization time is the total time for the hydrogel to fully form with no remaining soluble fibrin monomer. Functionally, this is defined as the point at which the shear modulus no longer changes. Quantitatively, this is defined at the point at which the g′ reaches its maximum and plateaus over time.
To test if the inclusion of TB and EB would alter the polymerization time, the previous rheometry setup was used over a longer range of time. Unfortunately, evaporative effects were detected as early as 2 hours. […] The surface was sticky, and the presence of non-cross-linked fibrin was evident. To measure polymerization time reliably, the fibrinogen and thrombin concentrations were increased. A 40 mg/mL fibrinogen and 33 U/mL thrombin final concentration is capable of fully polymerizing within 2 hours (see, e.g., Gandhi et al., Acta Biomater., 67:134-46 (2018)). As such, the rheometry experiment were repeated at these concentrations. A final concentration of 0.12% w/v for TB, EB and PEG was used.
Both PBS and PEG groups show g′ values greater than g″ values at the first detectable time point (12 seconds), showing that both groups had already past the initial gelation time. TB and EB show a delay in gelation but appear to quickly approach the PBS and PEG groups. Near the 1000 sec mark, all four groups appear to show a similar growth of g′ overtime. A strain sweep was measured at the end of the time sweep to confirm that the gel had completed polymerization within the 2 hour time frame. Shear modulus values from the linear portion of the strain sweep were verified with rheological data described elsewhere (see, e.g., Wedgwood et al., Macromolecular Symposia, 334:117-25 (2013); and Moreno-Arotzena et al., Materials (Basel), 8:1636-51 (2015)), and used to determine the final gel shear modulus. Using this shear modulus value, the polymerization time for each sample was calculated. The polymerization times for PBS, TB, EB, and PEG groups were 97.0±14.9, 94.6±8.3, 106.2±10.7, 93.8±17.0 minutes (n=3, p=0.654) (FIG. 8B).

The nature of series [2]: Solubility point in citrate buffer. It counts as physicochemical. The following applies: aqueous buffer; 1× citrate buffer (20 mM sodium citrate, 100 mM sodium chloride pH 7.4).

Molecules are shown by their SMILES. Converted amounts (≈) assume the structure as drawn.

As for `Cc1cc(-c2ccc(/N=N/c3ccc4c(S(=O)(=O)O)cc(S(=O)(=O)O)c(N)c4c3O)c(C)c2)ccc1/N=N/c1ccc2c(S(=O)(=O)O)cc(S(=O)(=O)O)c(N)c2c1O` [EB, Evans Blue], in series [1], the gelation time worked out at 89.6 ± 17.9 s, the polymerization time came out at 106.2 ± 10.7 min and the “final shear modulus (g′)” value was found to be 2077±441 Pa.

For orientation: solubility means the concentration that dissolves in the medium under given conditions. Higher therefore signals a readily soluble substance. Turning to `Cc1cc(-c2ccc(/N=N/c3c(S(=O)(=O)O)cc4cc(S(=O)(=O)O)cc(N)c4c3O)c(C)c2)ccc1/N=N/c1c(S(=O)(=O)O)cc2cc(S(=O)(=O)O)cc(N)c2c1O` [TB, Trypan Blue], in series [2], the solubility was 4.58 mM (≈ 4000 µg/mL). Further, in series [1], the gelation time is 42.4 ± 19.4 s, the polymerization time came to 94.6 ± 8.3 min and the “final shear modulus (g′)” value was determined as 2197±221 Pa.
